Measured values taken from patent US11066357B2, “Benzoannulene derivatives as antiviral agents” (Southern Research Institute, priority 2017, dated 2021).

Experiments:
CHIKV = assay: antiviral activity (EC50), Table 1; assay type: cell-based; conditions: Chikungunya virus
[1] = cytotoxicity (CC50), Table 1

Structure (SMILES) | EC50 (CHIKV) | CC50 [1]
COc1cc2c(cc1C(=O)Nc1ccc(C(C)(C)C)cc1)CCCCC2 [Compound 1, N-(4-(tert.-butyl)phenyl)-3-methoxy-6,7,8,9-tetrahydro-5H-benzo[7]annulene-2-carboxamide] | 0.32 µM | > 40 µM
COc1cc2c(cc1CC(=O)N1CCC(F)(F)CC1)CCCCC2 [Compound 33, 1-(4,4-difluoropiperidin-1-yl)-2-(3-methoxy-6,7,8,9-tetrahydro-5H-benzo[7]annulen-2-yl)ethan-1-one] | > 40 µM | > 40 µM
COc1cc2c(cc1CC(=O)N1CCC(C(C)(C)C)CC1)CCCCC2 [Compound 32, 1-(4-(tert.-butyl)piperidin-1-yl)-2-(3-methoxy-6,7,8,9-tetrahydro-5H-benzo[7]annulen-2-yl)ethan-1-one] | 12.6 µM | 17.3 µM
COc1cc2c(cc1C(=O)Nc1cccnc1SC)CCCCC2 [Compound 34, 3-methoxy-N-(2-(methylthio)pyridin-3-yl)-6,7,8,9-tetrahydro-5H-benzo[7]annulene-2-carboxamide] | > 40 µM | > 40 µM
